Reference: PubChem BioAssay (NCI)
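Test compounds were applied to cells in 96-well plates for 48 hours at 5 doses. At the GI50, growth is halved. TGI: total growth inhibition.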

Experiments:
Assay in all cases: NCI-60 cell line screen, 48 h
SN12C renal = system: SN12C renal
OVCAR-8 ovarian = system: OVCAR-8 ovarian
UO-31 renal = system: UO-31 renal
IGROV1 ovarian = system: IGROV1 ovarian
T-47D breast = system: T-47D breast
MCF7 breast = system: MCF7 breast
CAKI-1 renal = system: CAKI-1 renal
PC-3 prostate = system: PC-3 prostate
SK-MEL-5 melanoma = system: SK-MEL-5 melanoma
HCC-2998 colon = system: HCC-2998 colon
NCI-H23 lung = system: NCI-H23 lung
EKVX NSCLC = system: EKVX NSCLC
U251 CNS = system: U251 CNS
SF-539 CNS = system: SF-539 CNS
A549 NSCLC = system: A549 NSCLC
TK-10 renal = system: TK-10 renal
OVCAR-3 ovarian = system: OVCAR-3 ovarian
KM12 colon = system: KM12 colon
OVCAR-4 ovarian = system: OVCAR-4 ovarian
SNB-19 CNS = system: SNB-19 CNS
SK-MEL-2 melanoma = system: SK-MEL-2 melanoma
HCT-15 colon = system: HCT-15 colon
OVCAR-5 ovarian = system: OVCAR-5 ovarian
CCRF-CEM leukemia = system: CCRF-CEM leukemia
ACHN renal = system: ACHN renal
HT29 colon = system: HT29 colon
HOP-62 NSCLC = system: HOP-62 NSCLC
COLO 205 colon = system: COLO 205 colon
HL-60(TB) leukemia = system: HL-60(TB) leukemia
BT-549 breast = system: BT-549 breast

With `CN1CCN(Cc2ccc(NC(=O)c3cncc(C#Cc4cnc5ccc(N[C@@H]6CCOC6)nn45)c3)cc2C(F)(F)F)CC1` the GI50 (SN12C renal) was 34 nM, the TGI (SN12C renal) was 271 nM and the GI50 (OVCAR-8 ovarian) was 189 nM. For the same compound, the TGI (OVCAR-8 ovarian) was 963 nM, the GI50 (UO-31 renal) was 1190 nM and the TGI (UO-31 renal) was 2930 nM. For the same compound, the GI50 (IGROV1 ovarian) was 107 nM, the TGI (IGROV1 ovarian) was 531 nM and the GI50 (T-47D breast) was 323 nM. For the same compound, the TGI (T-47D breast) was 3140 nM, the GI50 (MCF7 breast) was 51.8 nM and the TGI (MCF7 breast) was 518 nM. For the same compound, the GI50 (CAKI-1 renal) was 128 nM, the TGI (CAKI-1 renal) was 484 nM and the GI50 (PC-3 prostate) was 161 nM. It also gave a TGI (PC-3 prostate) of 1160 nM, a GI50 (SK-MEL-5 melanoma) of 193 nM and a TGI (SK-MEL-5 melanoma) of 556 nM. The GI50 (HCC-2998 colon) was 198 nM, the TGI (HCC-2998 colon) was 553 nM and the GI50 (NCI-H23 lung) was 108 nM. It also gave a TGI (NCI-H23 lung) of 265 nM, a GI50 (EKVX NSCLC) of 120 nM and a TGI (EKVX NSCLC) of 383 nM. For the same compound, the GI50 (U251 CNS) was 216 nM, the TGI (U251 CNS) was 879 nM and the GI50 (SF-539 CNS) was 19.3 nM. For the same compound, the TGI (SF-539 CNS) was 74.2 nM, the GI50 (A549 NSCLC) was 138 nM and the TGI (A549 NSCLC) was 1010 nM. The GI50 (TK-10 renal) was 245 nM, the TGI (TK-10 renal) was 646 nM and the GI50 (OVCAR-3 ovarian) was 125 nM. For the same compound, the TGI (OVCAR-3 ovarian) was 509 nM, the GI50 (KM12 colon) was under 9.7 nM and the TGI (KM12 colon) was 761 nM. The GI50 (OVCAR-4 ovarian) was 138 nM, the TGI (OVCAR-4 ovarian) was 646 nM and the GI50 (SNB-19 CNS) was 222 nM. It also gave a TGI (SNB-19 CNS) of 769 nM, a GI50 (SK-MEL-2 melanoma) of 173 nM and a TGI (SK-MEL-2 melanoma) of 318 nM. The GI50 (HCT-15 colon) was 335 nM, the TGI (HCT-15 colon) was 1370 nM and the GI50 (OVCAR-5 ovarian) was 202 nM. The TGI (OVCAR-5 ovarian) was 618 nM, the GI50 (CCRF-CEM leukemia) was under 9.7 nM and the TGI (CCRF-CEM leukemia) was 356 nM. For the same compound, the GI50 (ACHN renal) was 256 nM, the TGI (ACHN renal) was 1040 nM and the GI50 (HT29 colon) was 87.9 nM. For the same compound, the TGI (HT29 colon) was 415 nM, the GI50 (HOP-62 NSCLC) was 104 nM and the TGI (HOP-62 NSCLC) was 355 nM. For the same compound, the GI50 (COLO 205 colon) was 30.1 nM, the TGI (COLO 205 colon) was 86.8 nM and the GI50 (HL-60(TB) leukemia) was 85.5 nM. The TGI (HL-60(TB) leukemia) was 759 nM and the GI50 (BT-549 breast) was 169 nM.
